Results reported in the NIST ThermoML archive (doi:10.1016/j.tca.2015.08.013).
± gives the expanded uncertainty stated by the source.

Details: for surface tension liquid-gas: Drop volume; for mass density / kinematic viscosity / speed of sound / vapor or sublimation pressure: Liquid; for mass density: Vibrating tube method; for kinematic viscosity / speed of sound: 101.33 kPa; for kinematic viscosity: Capillary tube (Ostwald / Ubbelohde) method; for speed of sound: Sing-around technique in a fixed-path interferometer; for vapor or sublimation pressure: Ebulliometric method (Recirculating still)

c1ccoc1 [furan]
Details	kinematic viscosity [m2/s]	speed of sound [m/s]	surface tension liquid-gas [mN/m]	vapor or sublimation pressure [kPa]
278.15 K	4.59e-07 ± 9.9e-09	1228.1 ± 1.5	26.03 ± 0.23	–
280.65 K	4.48e-07 ± 9.7e-09	1216.2 ± 1.5	25.69 ± 0.23	–
283.15 K	4.39e-07 ± 9.5e-09	1204.5 ± 1.5	25.32 ± 0.23	–
284.4 K	–	–	–	45.59 ± 0.21
285.65 K	4.3e-07 ± 9.3e-09	1192.8 ± 1.5	24.97 ± 0.23	–
285.86 K	–	–	–	48.66 ± 0.21
287.16 K	–	–	–	51.63 ± 0.21
288.15 K	4.2e-07 ± 9.1e-09	1181 ± 1.5	24.59 ± 0.22	–
288.34 K	–	–	–	54.23 ± 0.21
289.2 K	–	–	–	56.05 ± 0.21
290.4 K	–	–	–	59.18 ± 0.21
290.65 K	4.09e-07 ± 8.9e-09	1169.2 ± 1.5	24.18 ± 0.22	–
291.7 K	–	–	–	62.26 ± 0.21
292.2 K	–	–	–	63.6 ± 0.21
292.79 K	–	–	–	64.53 ± 0.22
293.15 K	3.99e-07 ± 8.6e-09	1157.4 ± 1.5	23.79 ± 0.22	–
294.55 K	–	–	–	69.25 ± 0.22
295.55 K	–	–	–	72.4 ± 0.22
295.65 K	3.89e-07 ± 8.4e-09	1145.3 ± 1.5	23.35 ± 0.22	–
296.9 K	–	–	–	76.25 ± 0.22
297.36 K	–	–	–	77.63 ± 0.22
298.15 K	3.79e-07 ± 8.2e-09	1133.1 ± 1.5	22.94 ± 0.21	–
298.44 K	–	–	–	80.9 ± 0.23
299.63 K	–	–	–	84.59 ± 0.23
300.65 K	3.7e-07 ± 8e-09	1120.9 ± 1.5	22.55 ± 0.21	–
300.76 K	–	–	–	88.22 ± 0.23
301.52 K	–	–	–	90.81 ± 0.23
302.4 K	–	–	–	93.89 ± 0.23
303.15 K	3.61e-07 ± 7.8e-09	1108.8 ± 1.5	22.08 ± 0.21	–
303.86 K	–	–	–	99.07 ± 0.23
304.46 K	–	–	–	101.33 ± 0.24

Details	mass density [kg/m3]
278.15 K, 99 kPa	959.086 ± 0.23
280.65 K, 99 kPa	955.729 ± 0.23
283.15 K, 99 kPa	952.358 ± 0.23
283.15 K, 100 kPa	952.36 ± 0.29
283.15 K, 2500 kPa	954.38 ± 0.29
283.15 K, 5000 kPa	956.94 ± 0.3
283.15 K, 7500 kPa	959.39 ± 0.3
283.15 K, 10000 kPa	961.81 ± 0.3
283.15 K, 20000 kPa	970.97 ± 0.31
283.15 K, 30000 kPa	979.35 ± 0.31
283.15 K, 40000 kPa	987.2 ± 0.3
283.15 K, 50000 kPa	994.5 ± 0.3
283.15 K, 60000 kPa	1001.42 ± 0.29
285.65 K, 99 kPa	948.976 ± 0.23
288.15 K, 99 kPa	945.579 ± 0.23
288.15 K, 100 kPa	945.58 ± 0.29
288.15 K, 2500 kPa	947.81 ± 0.29
288.15 K, 5000 kPa	950.42 ± 0.3
288.15 K, 7500 kPa	953.03 ± 0.3
288.15 K, 10000 kPa	955.59 ± 0.3
288.15 K, 20000 kPa	965.03 ± 0.31
288.15 K, 30000 kPa	973.69 ± 0.31
288.15 K, 40000 kPa	981.69 ± 0.31
288.15 K, 50000 kPa	989.18 ± 0.3
288.15 K, 60000 kPa	996.21 ± 0.3
290.65 K, 99 kPa	942.167 ± 0.23
293.15 K, 99 kPa	938.739 ± 0.23
293.15 K, 100 kPa	938.74 ± 0.29
293.15 K, 2500 kPa	940.99 ± 0.29
293.15 K, 5000 kPa	943.7 ± 0.3
293.15 K, 7500 kPa	946.38 ± 0.3
293.15 K, 10000 kPa	948.97 ± 0.3
293.15 K, 20000 kPa	958.75 ± 0.31
293.15 K, 30000 kPa	967.71 ± 0.32
293.15 K, 40000 kPa	976.04 ± 0.32
293.15 K, 50000 kPa	983.77 ± 0.31
293.15 K, 60000 kPa	990.98 ± 0.3
295.65 K, 99 kPa	935.294 ± 0.23
298.15 K, 99 kPa	931.835 ± 0.23
298.15 K, 100 kPa	931.84 ± 0.29
298.15 K, 2500 kPa	934.31 ± 0.29
298.15 K, 5000 kPa	937.14 ± 0.3
298.15 K, 7500 kPa	939.92 ± 0.3
298.15 K, 10000 kPa	942.68 ± 0.31
298.15 K, 20000 kPa	952.79 ± 0.32
298.15 K, 30000 kPa	961.99 ± 0.32
298.15 K, 40000 kPa	970.53 ± 0.32
298.15 K, 50000 kPa	978.42 ± 0.32
298.15 K, 60000 kPa	985.81 ± 0.31
300.65 K, 99 kPa	928.357 ± 0.23
303.15 K, 99 kPa	924.861 ± 0.23
303.15 K, 100 kPa	924.86 ± 0.29
303.15 K, 2500 kPa	927.4 ± 0.3
303.15 K, 5000 kPa	930.33 ± 0.3
303.15 K, 7500 kPa	933.21 ± 0.3
303.15 K, 10000 kPa	936 ± 0.31
303.15 K, 20000 kPa	946.46 ± 0.32
303.15 K, 30000 kPa	956.04 ± 0.33
303.15 K, 40000 kPa	964.82 ± 0.33
303.15 K, 50000 kPa	972.99 ± 0.33
303.15 K, 60000 kPa	980.62 ± 0.32
308.15 K, 2500 kPa	920.6 ± 0.3
308.15 K, 5000 kPa	923.71 ± 0.3
308.15 K, 7500 kPa	926.73 ± 0.31
308.15 K, 10000 kPa	929.66 ± 0.31
308.15 K, 20000 kPa	940.5 ± 0.32
308.15 K, 30000 kPa	950.3 ± 0.33
308.15 K, 40000 kPa	959.34 ± 0.33
308.15 K, 50000 kPa	967.69 ± 0.33
308.15 K, 60000 kPa	975.44 ± 0.33
313.15 K, 2500 kPa	913.48 ± 0.3
313.15 K, 5000 kPa	916.68 ± 0.3
313.15 K, 7500 kPa	919.8 ± 0.31
313.15 K, 10000 kPa	922.81 ± 0.31
313.15 K, 20000 kPa	934.04 ± 0.33
313.15 K, 30000 kPa	944.27 ± 0.34
313.15 K, 40000 kPa	953.57 ± 0.34
313.15 K, 50000 kPa	962.21 ± 0.34
313.15 K, 60000 kPa	970.23 ± 0.34
318.15 K, 2500 kPa	906.59 ± 0.3
318.15 K, 5000 kPa	909.88 ± 0.3
318.15 K, 7500 kPa	913.18 ± 0.31
318.15 K, 10000 kPa	916.44 ± 0.31
318.15 K, 20000 kPa	928.06 ± 0.33
318.15 K, 30000 kPa	938.56 ± 0.34
318.15 K, 40000 kPa	948.09 ± 0.35
318.15 K, 50000 kPa	956.88 ± 0.35
318.15 K, 60000 kPa	965.06 ± 0.35
323.15 K, 2500 kPa	899.25 ± 0.3
323.15 K, 5000 kPa	902.71 ± 0.3
323.15 K, 7500 kPa	906.1 ± 0.31
323.15 K, 10000 kPa	909.42 ± 0.32
323.15 K, 20000 kPa	921.53 ± 0.33
323.15 K, 30000 kPa	932.47 ± 0.35
323.15 K, 40000 kPa	942.39 ± 0.35
323.15 K, 50000 kPa	951.44 ± 0.36
323.15 K, 60000 kPa	959.86 ± 0.36
328.15 K, 2500 kPa	892.18 ± 0.3
328.15 K, 5000 kPa	895.9 ± 0.31
328.15 K, 7500 kPa	899.49 ± 0.31
328.15 K, 10000 kPa	902.97 ± 0.32
328.15 K, 20000 kPa	915.52 ± 0.34
328.15 K, 30000 kPa	926.72 ± 0.35
328.15 K, 40000 kPa	936.8 ± 0.36
328.15 K, 50000 kPa	946.08 ± 0.36
328.15 K, 60000 kPa	954.71 ± 0.37
333.15 K, 2500 kPa	884.69 ± 0.3
333.15 K, 5000 kPa	888.51 ± 0.31
333.15 K, 7500 kPa	892.17 ± 0.31
333.15 K, 10000 kPa	895.74 ± 0.32
333.15 K, 20000 kPa	908.84 ± 0.34
333.15 K, 30000 kPa	920.52 ± 0.36
333.15 K, 40000 kPa	931.04 ± 0.37
333.15 K, 50000 kPa	940.62 ± 0.37
333.15 K, 60000 kPa	949.48 ± 0.37
338.15 K, 2500 kPa	877.34 ± 0.3
338.15 K, 5000 kPa	881.44 ± 0.31
338.15 K, 7500 kPa	885.37 ± 0.31
338.15 K, 10000 kPa	889.16 ± 0.32
338.15 K, 20000 kPa	902.71 ± 0.34
338.15 K, 30000 kPa	914.72 ± 0.36
338.15 K, 40000 kPa	925.5 ± 0.37
338.15 K, 50000 kPa	935.32 ± 0.38
338.15 K, 60000 kPa	944.34 ± 0.38
